Results reported in PubChem BioAssay (NCI).
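GI50: concentration for 50% inhibition of growth. TGI marks complete inhibition of growth.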

Tests used:
Assay in all cases: DTP human tumour cell line panel, 384-well format
786-0 renal = test system: 786-0 renal
A498 renal = test system: A498 renal
ACHN renal = test system: ACHN renal
BT-549 breast = test system: BT-549 breast
CAKI-1 renal = test system: CAKI-1 renal
CCRF-CEM leukemia = test system: CCRF-CEM leukemia
COLO 205 colon = test system: COLO 205 colon
DU-145 prostate = test system: DU-145 prostate
EKVX NSCLC = test system: EKVX NSCLC
HCC-2998 colon = test system: HCC-2998 colon
HCT-15 colon = test system: HCT-15 colon
HL-60(TB) leukemia = test system: HL-60(TB) leukemia
HOP-62 NSCLC = test system: HOP-62 NSCLC
HOP-92 NSCLC = test system: HOP-92 NSCLC
HS 578T breast = test system: HS 578T breast
IGROV1 ovarian = test system: IGROV1 ovarian
K-562 leukemia = test system: K-562 leukemia
KM12 colon = test system: KM12 colon
LOX IMVI melanoma = test system: LOX IMVI melanoma
M14 melanoma = test system: M14 melanoma
MALME-3M melanoma = test system: MALME-3M melanoma
MCF7 breast = test system: MCF7 breast
MDA-MB-231 breast = test system: MDA-MB-231 breast
MDA-MB-435 melanoma = test system: MDA-MB-435 melanoma
MDA-MB-468 breast = test system: MDA-MB-468 breast
NCI-H226 lung = test system: NCI-H226 lung
NCI-H23 lung = test system: NCI-H23 lung
NCI-H322M lung = test system: NCI-H322M lung
OVCAR-5 ovarian = test system: OVCAR-5 ovarian
OVCAR-8 ovarian = test system: OVCAR-8 ovarian
PC-3 prostate = test system: PC-3 prostate
RPMI-8226 leukemia = test system: RPMI-8226 leukemia
RXF 393 renal = test system: RXF 393 renal
SF-295 CNS = test system: SF-295 CNS
SF-539 CNS = test system: SF-539 CNS
SK-MEL-2 melanoma = test system: SK-MEL-2 melanoma
SK-MEL-28 melanoma = test system: SK-MEL-28 melanoma
SK-MEL-5 melanoma = test system: SK-MEL-5 melanoma
SK-OV-3 ovarian = test system: SK-OV-3 ovarian
SN12C renal = test system: SN12C renal
SNB-75 CNS = test system: SNB-75 CNS
SW-620 colon = test system: SW-620 colon
T-47D breast = test system: T-47D breast
TK-10 renal = test system: TK-10 renal
U251 glioblastoma = test system: U251 glioblastoma
UACC-62 melanoma = test system: UACC-62 melanoma
UO-31 renal = test system: UO-31 renal

Compound: C1=C/COCc2cc(ccc2OCCN2CCCC2)Nc2nccc(n2)-c2cccc(c2)COC/1
- GI50 ([…]-0 renal): 1.26 µM
- TGI (786-0 renal): 2.62 µM
- GI50 (A498 renal): 0.829 µM
- TGI (A498 renal): 2.85 µM
- GI50 (ACHN renal): 0.87 µM
- TGI (ACHN renal): 4.43 µM
- GI50 (BT-549 breast): 1.79 µM
- TGI (BT-549 breast): 3.2 µM
- GI50 (CAKI-1 renal): 0.428 µM
- TGI (CAKI-1 renal): 1.71 µM
- GI50 (CCRF-CEM leukemia): 0.705 µM
- TGI (CCRF-CEM leukemia): 1.79 µM
- GI50 (COLO 205 colon): 1.09 µM
- TGI (COLO 205 colon): 2.47 µM
- GI50 (DU-145 prostate): 1.06 µM
- TGI (DU-145 prostate): 3.43 µM
- GI50 (EKVX NSCLC): 1.56 µM
- TGI (EKVX NSCLC): 3.37 µM
- GI50 (HCC-2998 colon): 1.35 µM
- TGI (HCC-2998 colon): 2.72 µM
- GI50 (HCT-15 colon): 0.802 µM
- TGI (HCT-15 colon): 2.31 µM
- GI50 (HL-60(TB) leukemia): 0.251 µM
- TGI (HL-60(TB) leukemia): 0.684 µM
- GI50 (HOP-62 NSCLC): 1.4 µM
- TGI (HOP-62 NSCLC): 3.03 µM
- GI50 (HOP-92 NSCLC): 1.6 µM
- TGI (HOP-92 NSCLC): 3.91 µM
- GI50 (HS 578T breast): 1.36 µM
- TGI (HS 578T breast): 2.67 µM
- GI50 (IGROV1 ovarian): 0.811 µM
- TGI (IGROV1 ovarian): 2.94 µM
- GI50 (K-562 leukemia): 0.789 µM
- TGI (K-562 leukemia): 2.14 µM
- GI50 (KM12 colon): 0.321 µM
- TGI (KM12 colon): 1.33 µM
- GI50 (LOX IMVI melanoma): 0.842 µM
- TGI (LOX IMVI melanoma): 2.08 µM
- GI50 (M14 melanoma): 1.16 µM
- TGI (M14 melanoma): 2.39 µM
- GI50 (MALME-3M melanoma): 0.829 µM
- TGI (MALME-3M melanoma): 2.02 µM
- GI50 (MCF7 breast): 0.521 µM
- TGI (MCF7 breast): 1.78 µM
- GI50 (MDA-MB-231 breast): 1.19 µM
- TGI (MDA-MB-231 breast): 2.92 µM
- GI50 (MDA-MB-435 melanoma): 1.32 µM
- TGI (MDA-MB-435 melanoma): 2.73 µM
- GI50 (MDA-MB-468 breast): 1.66 µM
- TGI (MDA-MB-468 breast): 3.03 µM
- GI50 (NCI-H226 lung): 1.14 µM
- TGI (NCI-H226 lung): 2.6 µM
- GI50 (NCI-H23 lung): 0.945 µM
- TGI (NCI-H23 lung): 2.25 µM
- GI50 (NCI-H322M lung): 1.01 µM
- TGI (NCI-H322M lung): 2.47 µM
- GI50 (OVCAR-5 ovarian): 0.778 µM
- TGI (OVCAR-5 ovarian): 2.64 µM
- GI50 (OVCAR-8 ovarian): 1.29 µM
- TGI (OVCAR-8 ovarian): 2.67 µM
- GI50 (PC-3 prostate): 1.27 µM
- TGI (PC-3 prostate): 3.25 µM
- GI50 (RPMI-8226 leukemia): 1.66 µM
- TGI (RPMI-8226 leukemia): 3.03 µM
- GI50 (RXF 393 renal): 1.21 µM
- TGI (RXF 393 renal): 2.47 µM
- GI50 (SF-295 CNS): 1.81 µM
- TGI (SF-295 CNS): 3.31 µM
- GI50 (SF-539 CNS): 1.7 µM
- TGI (SF-539 CNS): 3.08 µM
- GI50 (SK-MEL-2 melanoma): 0.625 µM
- TGI (SK-MEL-2 melanoma): 1.79 µM
- GI50 (SK-MEL-28 melanoma): 1.19 µM
- TGI (SK-MEL-28 melanoma): 2.44 µM
- GI50 (SK-MEL-5 melanoma): 1.45 µM
- TGI (SK-MEL-5 melanoma): 2.77 µM
- GI50 (SK-OV-3 ovarian): 0.888 µM
- TGI (SK-OV-3 ovarian): 2.35 µM
- GI50 (SN12C renal): 0.704 µM
- TGI (SN12C renal): 2.01 µM
- GI50 (SNB-75 CNS): 1.61 µM
- TGI (SNB-75 CNS): 2.98 µM
- GI50 (SW-620 colon): 1.52 µM
- TGI (SW-620 colon): 3.4 µM
- GI50 (T-47D breast): 1.27 µM
- TGI (T-47D breast): 2.67 µM
- GI50 (TK-10 renal): 1.33 µM
- TGI (TK-10 renal): 3.56 µM
- GI50 (U251 glioblastoma): 1.54 µM
- TGI (U251 glioblastoma): 3.29 µM
- GI50 (UACC-62 melanoma): 0.685 µM
- TGI (UACC-62 melanoma): 1.92 µM
- GI50 (UO-31 renal): 1.47 µM
- TGI (UO-31 renal): 3.19 µM
